Assay results reported in ChEMBL document CHEMBL1201862, “PubChem BioAssay data set” (2004).
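Results reflect a 48-hour exposure of cells in 96-well plates to compound at five concentrations. At the GI50, growth is halved.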 Active and inactive are the calls of the source. Rule as the data show it: active = GI50 up to about 1.1 µM and inactive = higher.

How the values were obtained:
Experiment in all cases: NCI anticancer screen, dose series, 48 h
786-0 = tested on: 786-0
A498 = tested on: A498
A549 = tested on: A549
ACHN = tested on: ACHN
BT-549 = tested on: BT-549
CAKI-1 = tested on: CAKI-1
CCRF-CEM = tested on: CCRF-CEM
COLO 205 = tested on: COLO 205
DLD-1 = tested on: DLD-1
DMS-114 = tested on: DMS-114
DMS-273 = tested on: DMS-273
DU-145 = tested on: DU-145
EKVX = tested on: EKVX
HCC 2998 = tested on: HCC 2998
HCT-116 = tested on: HCT-116
HCT-15 = tested on: HCT-15
HL-60 = tested on: HL-60
HOP-18 = tested on: HOP-18
HOP-62 = tested on: HOP-62
HOP-92 = tested on: HOP-92
HT-29 = tested on: HT-29
Hs-578T = tested on: Hs-578T
IGROV-1 = tested on: IGROV-1
K562 = tested on: K562
KM-20L2 = tested on: KM-20L2
KM12 = tested on: KM12
LOX IMVI = tested on: LOX IMVI
LXFL 529 = tested on: LXFL 529
M14 = tested on: M14
M19-MEL = tested on: M19-MEL
MCF7 = tested on: MCF7
MDA-MB-231 = tested on: MDA-MB-231
MDA-MB-435 = tested on: MDA-MB-435
MDA-N = tested on: MDA-N
MOLT-4 = tested on: MOLT-4
Malme-3M = tested on: Malme-3M
NCI-H226 = tested on: NCI-H226
NCI-H23 = tested on: NCI-H23
NCI-H460 = tested on: NCI-H460
NCI-H522 = tested on: NCI-H522
NCI/ADR-RES = tested on: NCI/ADR-RES
OVCAR-3 = tested on: OVCAR-3
OVCAR-4 = tested on: OVCAR-4
OVCAR-5 = tested on: OVCAR-5
OVCAR-8 = tested on: OVCAR-8
PC-3 = tested on: PC-3
RPMI-8226 = tested on: RPMI-8226
RXF 393 = tested on: RXF 393
SF-268 = tested on: SF-268
SF-295 = tested on: SF-295
SF-539 = tested on: SF-539
SK-MEL-28 = tested on: SK-MEL-28
SK-MEL-2 = tested on: SK-MEL-2
SK-MEL-5 = tested on: SK-MEL-5
SK-OV-3 = tested on: SK-OV-3
SN12C = tested on: SN12C
SNB-19 = tested on: SNB-19
SNB-75 = tested on: SNB-75
SNB-78 = tested on: SNB-78
SR = tested on: SR
SW-620 = tested on: SW-620
T47D = tested on: T47D
TK-10 = tested on: TK-10
U-251 = tested on: U-251
UACC-257 = tested on: UACC-257
UACC-62 = tested on: UACC-62
UO-31 = tested on: UO-31
XF498 = tested on: XF498

C[C@@H]1C[C@@H](O)[C@]2(O)O[C@@H]3C[C@@]4(C=O)[C@@H](CC[C@@H]5[C@@H]4CC[C@]4(C)[C@@H](C6=CC(=O)OC6)CC[C@]54O)C[C@H]3O[C@@H]2O1 [CALACTIN]
GI50 (786-0): 6.17 nM (active) | GI50 (A498): 20.8 nM (active) | GI50 (A549): 4.39 nM (active) | GI50 (ACHN): 2.83 nM (active) | GI50 (BT-549): 37.9 nM (active) | GI50 (CAKI-1): 10 nM (active) | GI50 (CCRF-CEM): 3.71 nM (active) | GI50 (COLO 205): 22.1 nM (active) | GI50 (DLD-1): 12 nM (active) | GI50 (DMS-114): 1.41 nM (active) | GI50 (DMS-273): 4.55 nM (active) | GI50 (DU-145): 17.1 nM (active) | GI50 (EKVX): 24.4 nM (active) | GI50 (HCC 2998): 161 nM (active) | GI50 (HCT-116): 10.2 nM (active) | GI50 (HCT-15): 16.2 nM | GI50 (HL-60): 12.9 nM (active) | GI50 (HOP-18): 4.2 nM (active) | GI50 (HOP-62): 6.71 nM (active) | GI50 (HOP-92): 27.6 nM (active) | GI50 (HT-29): 21 nM (active) | GI50 (Hs-578T): 20.2 nM (active) | GI50 (IGROV-1): 9.62 nM (active) | GI50 (K562): 17.9 nM (active) | GI50 (KM-20L2): 18.2 nM (active) | GI50 (KM12): 22.6 nM (active) | GI50 (LOX IMVI): 14.8 nM (active) | GI50 (LXFL 529): 5.01 nM (active) | GI50 (M14): 22.2 nM (active) | GI50 (M19-MEL): 20.6 nM (active) | GI50 (MCF7): 33.5 nM (active) | GI50 (MDA-MB-231): 15.3 nM (active) | GI50 (MDA-MB-435): 44.1 nM (active) | GI50 (MDA-N): 53.8 nM (active) | GI50 (MOLT-4): 1.88 nM (active) | GI50 (Malme-3M): 11.9 nM (active) | GI50 (NCI-H226): 24.3 nM (active) | GI50 (NCI-H23): 2.22 nM (active) | GI50 (NCI-H460): 4.64 nM (active) | GI50 (NCI-H522): 1.38 nM (active) | GI50 (NCI/ADR-RES): 30.6 nM (active) | GI50 (OVCAR-3): 1.69 nM (active) | GI50 (OVCAR-4): 22.2 nM (active) | GI50 (OVCAR-5): 23.7 nM (active) | GI50 (OVCAR-8): 10.8 nM (active) | GI50 (PC-3): 40.3 nM (active) | GI50 (RPMI-8226): 28.1 nM (active) | GI50 (RXF 393): 19.4 nM (active) | GI50 (SF-268): 2.31 nM (active) | GI50 (SF-295): 13.3 nM (active) | GI50 (SF-539): 5.81 nM (active) | GI50 (SK-MEL-28): 28.8 nM (active) | GI50 (SK-MEL-2): 11.4 nM (active) | GI50 (SK-MEL-5): 10.1 nM (active) | GI50 (SK-OV-3): 11.8 nM (active) | GI50 (SN12C): 3.01 nM (active) | GI50 (SNB-19): 21.9 nM (active) | GI50 (SNB-75): 25.1 nM (active) | GI50 (SNB-78): 10.6 nM (active) | GI50 (SR): 2.75 nM (active) | GI50 (SW-620): 13.3 nM (active) | GI50 (T47D): 46.9 nM (active) | GI50 (TK-10): 9.06 nM (active) | GI50 (U-251): 19 nM (active) | GI50 (UACC-257): 21.3 nM (active) | GI50 (UACC-62): 16 nM (active) | GI50 (UO-31): 17.1 nM (active) | GI50 (XF498): 15.9 nM (active)

C[N+]1(C)CCCC1C(=O)[O-] (stereo not drawn)
GI50 (786-0): > 100000 nM (inactive) | GI50 (A498): > 100000 nM (inactive) | GI50 (A549): > 100000 nM (inactive) | GI50 (ACHN): > 100000 nM (inactive) | GI50 (CCRF-CEM): > 100000 nM (inactive) | GI50 (COLO 205): > 100000 nM (inactive) | GI50 (DLD-1): > 100000 nM (inactive) | GI50 (DMS-114): > 100000 nM (inactive) | GI50 (DMS-273): > 100000 nM (inactive) | GI50 (EKVX): > 100000 nM (inactive) | GI50 (HCC 2998): > 100000 nM (inactive) | GI50 (HCT-116): > 100000 nM (inactive) | GI50 (HCT-15): > 100000 nM | GI50 (HL-60): > 100000 nM (inactive) | GI50 (HOP-18): > 100000 nM (inactive) | GI50 (HOP-62): > 100000 nM (inactive) | GI50 (HOP-92): > 100000 nM (inactive) | GI50 (HT-29): > 100000 nM (inactive) | GI50 (IGROV-1): > 100000 nM (inactive) | GI50 (K562): > 100000 nM (inactive) | GI50 (KM-20L2): > 100000 nM (inactive) | GI50 (KM12): > 100000 nM (inactive) | GI50 (LOX IMVI): > 100000 nM (inactive) | GI50 (LXFL 529): > 100000 nM (inactive) | GI50 (M14): > 100000 nM (inactive) | GI50 (M19-MEL): > 100000 nM (inactive) | GI50 (MOLT-4): > 100000 nM (inactive) | GI50 (Malme-3M): > 100000 nM (inactive) | GI50 (NCI-H226): > 100000 nM (inactive) | GI50 (NCI-H23): > 100000 nM (inactive) | GI50 (NCI-H460): > 100000 nM (inactive) | GI50 (NCI-H522): > 100000 nM (inactive) | GI50 (OVCAR-3): > 100000 nM (inactive) | GI50 (OVCAR-4): > 100000 nM (inactive) | GI50 (OVCAR-8): > 100000 nM (inactive) | GI50 (RPMI-8226): > 100000 nM (inactive) | GI50 (RXF 393): > 100000 nM (inactive) | GI50 (SF-268): > 100000 nM (inactive) | GI50 (SF-295): > 100000 nM (inactive) | GI50 (SF-539): > 100000 nM (inactive) | GI50 (SK-MEL-28): > 100000 nM (inactive) | GI50 (SK-MEL-2): > 100000 nM (inactive) | GI50 (SK-OV-3): > 100000 nM (inactive) | GI50 (SN12C): > 100000 nM (inactive) | GI50 (SNB-19): > 100000 nM (inactive) | GI50 (SNB-75): > 100000 nM (inactive) | GI50 (SNB-78): > 100000 nM (inactive) | GI50 (SR): > 100000 nM (inactive) | GI50 (SW-620): > 100000 nM (inactive) | GI50 (TK-10): > 100000 nM (inactive) | GI50 (U-251): > 100000 nM (inactive) | GI50 (UACC-257): > 100000 nM (inactive) | GI50 (UACC-62): > 100000 nM (inactive) | GI50 (UO-31): > 100000 nM (inactive) | GI50 (XF498): > 100000 nM (inactive)
